Experimental data from PMC10384175, “In Vitro and In Silico Evaluation of Antiproliferative Activity of New Isoxazolidine Derivatives Targeting EGFR: Design, Synthesis, Cell Cycle Analysis, and Apoptotic Inducers” (Pharmaceuticals, 2023).

Key:
A549 [1] = assay: MTT antiproliferative assay, A549; assay type: cell-based, human
Method: Cell viability was measured according to the previously published work [42].

SKOV-3 = assay: MTT antiproliferative assay, SKOV3; assay type: cell-based, human
Method: (§1) Compounds 2a–g were tested for their growth inhibitory effectiveness against MCF-7, A-549, and SKOV3 cell lines by means of MTT assay, with doxorubicin used as an anticancer standard drug. […] Remarkably, we note the high antiproliferative activity of 2c and 2d, only towards SKOV3.
(§2) The Roswell Park Memorial Institute medium (RPMI 1640, Gibco, Grand Island, NY, USA) was used to culture the following cancer cell lines including MCF-7, A549, and SKOV3. Cells were grown in FBS (10%) and 100 units mL PS (penicillin/streptomycin) and were supplied to the same medium under standard cell conditions in an incubator (5% of CO2, at 37 °C).
(§3) Cell viability was measured according to the previously published work.

MCF-7 [2] = assay: MTT antiproliferative assay, MCF-7; assay type: cell-based, human
Method: as §1, §2, §3

EGFR tyrosine kinase = EGFR tyrosine kinase (Homo sapiens, UniProt P00533); assay: EGFR tyrosine kinase inhibition; assay type: biochemical; details: enzymatic inhibition
Method: The EGFR activity was determined based on the method reported by E.A.A. El-Meguid et al. [43].

SKOV3 [3] = assay: Flow cytometric cell cycle analysis (PI), SKOV3; assay type: cell-based, human; details: for cell cycle arrest phase: SKOV3; for (%) of cells in G0/G1 / (%) of cells in S / decrease in the G2/M phase vs control, factor: SKOV3, 48 h at IC50
Method: (§4) Based on the antiproliferative activity data shown above, a flow cytometry analysis was performed to identify the cell cycle arrest induced by the selected compounds (2f and 2g) in the three cell lines, for 48 h at their respective IC50 concentrations (Figure 4). The cell cycle (G1, S, and G2) was analyzed after staining the DNA with propidium iodide (PI). […] Towards SKOV3 cell lines, the population of cells in the G0/G1 phase was not affected for 2f (31.4 ± 1.2 vs. 30.8 ± 1.5) and increased for 2g (31.4 ± 1.2 vs. 44.5 ± 0.6). Moreover, in the S phase, it was increased for 2f (43.1 ± 0.6vs. 59.5 ± 0.2) and not affected for 2g (43.1 ± 0.6 vs. 44.8 ± 1.6), however, it decreased in the G2/M phase for both 2f and 2g by a factor of 2.83 and 2.44, respectively.
(§5) The effect of selected compounds on cell cycle phase distribution was determined by flow cytometry using the same protocol described elsewhere.

SKOV3 [4] = assay: Cellular apoptosis assay (flow cytometry), SKOV3; assay type: cell-based, human; details: SKOV3, at IC50, 48 h
MCF-7 [5] = assay: Cellular apoptosis assay (flow cytometry), MCF-7; assay type: cell-based, human; details: MCF-7, at IC50, 48 h
A549 [6] = assay: Flow cytometric cell cycle analysis (PI), A549; assay type: cell-based, human; details: for cell cycle arrest phase: A549
Method: The effect of selected compounds on cell cycle phase distribution was determined by flow cytometry using the same protocol described elsewhere [44].

MCF-7 [7] = assay: Flow cytometric cell cycle analysis (PI), MCF-7; assay type: cell-based, human; details: for cell cycle arrest phase: MCF-7; for (%) of cells in G0/G1 / (%) of cells in S: MCF-7, 48 h at IC50
Method: as §4, §5

A549 [8] = assay: Cellular apoptosis assay (flow cytometry), A549; assay type: cell-based, human; details: A549, at IC50, 48 h
[9] = Homo sapiens, SK-OV-3, MTT assay

EGFR tyrosine kinase, sequence (P00533 25-1210): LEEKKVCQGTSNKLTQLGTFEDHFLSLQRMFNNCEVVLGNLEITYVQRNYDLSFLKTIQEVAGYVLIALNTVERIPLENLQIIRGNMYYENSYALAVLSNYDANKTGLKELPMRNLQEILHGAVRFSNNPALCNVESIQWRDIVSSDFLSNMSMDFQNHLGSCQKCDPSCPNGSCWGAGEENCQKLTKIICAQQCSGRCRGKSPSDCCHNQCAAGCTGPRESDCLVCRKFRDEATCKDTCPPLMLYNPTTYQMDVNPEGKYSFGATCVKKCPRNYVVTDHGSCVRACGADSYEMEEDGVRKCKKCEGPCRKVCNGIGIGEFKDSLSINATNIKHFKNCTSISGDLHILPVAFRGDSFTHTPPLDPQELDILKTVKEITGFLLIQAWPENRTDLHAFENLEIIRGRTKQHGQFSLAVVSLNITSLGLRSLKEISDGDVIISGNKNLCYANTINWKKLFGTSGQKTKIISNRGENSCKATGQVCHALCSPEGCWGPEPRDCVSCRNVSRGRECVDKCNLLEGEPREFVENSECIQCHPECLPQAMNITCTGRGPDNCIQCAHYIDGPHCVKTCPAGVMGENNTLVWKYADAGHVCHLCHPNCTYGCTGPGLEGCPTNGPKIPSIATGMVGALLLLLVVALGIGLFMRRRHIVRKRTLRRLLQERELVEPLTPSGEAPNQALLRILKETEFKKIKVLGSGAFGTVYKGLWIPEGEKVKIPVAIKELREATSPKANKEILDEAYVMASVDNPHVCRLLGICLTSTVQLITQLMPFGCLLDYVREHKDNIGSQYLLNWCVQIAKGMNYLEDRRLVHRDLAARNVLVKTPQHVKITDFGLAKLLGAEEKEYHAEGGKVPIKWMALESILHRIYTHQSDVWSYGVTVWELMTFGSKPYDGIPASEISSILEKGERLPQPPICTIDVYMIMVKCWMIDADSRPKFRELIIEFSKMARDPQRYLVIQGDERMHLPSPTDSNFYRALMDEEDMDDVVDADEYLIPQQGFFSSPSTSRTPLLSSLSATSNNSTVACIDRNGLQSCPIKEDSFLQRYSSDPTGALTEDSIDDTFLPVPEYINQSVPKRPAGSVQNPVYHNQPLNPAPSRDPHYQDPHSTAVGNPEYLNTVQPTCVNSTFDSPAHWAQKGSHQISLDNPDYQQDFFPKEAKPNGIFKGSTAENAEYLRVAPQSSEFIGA

For COc1cc(C[C@@H]2C[C@H]3C(=O)N(C)[C@@]4(C[C@H](C)CC[C@H]4C(C)C)N3O2)ccc1OC(C)=O [2e, 4-(((1S,2S,2′R,3a′S,5R)-2-Isopropyl-5,5′-dimethyl-4′-oxotetrahydro-2′H-spiro[cyclohexane-1,6′-imidazo [1,5-b]isoxazol]-2′-yl)methyl)-2-methoxyphenyl acetate], the IC50 (A549 [1]; Homo sapiens, A549, MTT assay) was 53.5 ± 1.1 µM, the IC50 (SKOV-3; [9]) was 27.9 ± 1.9 µM and the IC50 (MCF-7 [2]; Homo sapiens, MCF7, MTT assay) was 66.8 ± 2.7 µM.
COc1ccc(C[C@@H]2C[C@H]3C(=O)N(C)C4(C[C@H](C)CC[C@H]4C(C)C)N3O2)cc1OC (stereo partly drawn) [2d, (2S,2′R,3a′S,5R)-2′-(3,4-dimethoxybenzyl)-2-isopropyl-5,5′-dimethyldihydro-2′H-spiro[cyclohexane-1,6′-imidazo [1,5-b]isoxazol]-4′(5′H)-one] was tested, and the IC50 (A549 [1]; Homo sapiens, A549, MTT assay) was 25 ± 2.5 µM, the IC50 (SKOV-3; [9]) was 27.6 ± 2.2 µM and the IC50 (MCF-7 [2]; Homo sapiens, MCF7, MTT assay) was 8.7 ± 0.5 µM.
In the case of COc1cc(C[C@@H]2C[C@H]3C(=O)N(C)C4(C[C@H](C)CC[C@H]4C(C)C)N3O2)ccc1O (stereo partly drawn) [2a, (2S,2′R,3a′S,5R)-2′-(4-hydroxy-3-methoxybenzyl)-2-isopropyl-5,5′-dimethyldihydro-2′H-spiro[cyclohexane-1,6′-imidazo [1,5-b]isoxazol]-4′(5′H)-one], the IC50 (A549 [1]; Homo sapiens, A549, MTT assay) is reported as 18.1 ± 0.7 µM, the IC50 (SKOV-3; [9]) is reported as 14.5 ± 0.9 µM and the IC50 (MCF-7 [2]; Homo sapiens, MCF7, MTT assay) is reported as 21.3 ± 0.5 µM.
“(2R,2′R,3a′S,5R)-2′-(2-acetyl-6-hydroxybenzyl)-2,5,5′-trimethyldihydro-2′H-spiro[cyclohexane-1,6′-imidazo [1,5-b]isoxazol]-4′(5′H)-one [2b]” gave an IC50 (A549 [1]; MTT assay) of 48.7 ± 0.9 µM, an IC50 (SKOV-3; MTT assay) of 18.3 ± 0.9 µM and an IC50 (MCF-7 [2]; MTT assay) of 22.2 ± 0.3 µM.
In the case of CC(C)[C@@H]1CC[C@@H](C)C[C@@]12N(C)C(=O)[C@@H]1C[C@@H](Cc3ccccc3O)ON12 [2f, (1S,2S,2′R,3a′S,5R)-2′-(2-Hydroxybenzyl)-2-isopropyl-5,5′-dimethyldihydro-2′H-spiro[cyclohexane-1,6′-imidazo [1,5-b]isoxazol]-4′(5′H)-one], the IC50 (EGFR tyrosine kinase) is reported as 0.298 ± 0.007 µM, the “cell cycle arrest phase” value (SKOV3 [3]) is reported as “S phase” and the “(%) of cells in G0/G1” value (SKOV3 [3]) is reported as 31.4 ± 1.2%. For the same molecule, the “(%) of cells in S” value (SKOV3 [3]) was 59.5 ± 0.2%, the “decrease in the G2/M phase vs control, factor” value (SKOV3 [3]) was 2.83 and the Early apoptosis (SKOV3 [4]) was 17.9%. For the same molecule, the Intact cells (SKOV3 [4]) was 8.78%, the Late apoptosis (SKOV3 [4]) was 67.16% and the Necrosis (SKOV3 [4]) was 6.16%. The “Total death (cellular apoptosis)” value (SKOV3 [4]) was 91.22%, the Early apoptosis (MCF-7 [5]) was 70.48% and the Intact cells (MCF-7 [5]) was 13.11%. The Late apoptosis (MCF-7 [5]) was 15.78%, the Necrosis (MCF-7 [5]) was 0.63% and the “Total death (cellular apoptosis)” value (MCF-7 [5]) was 86.89%. For the same molecule, the “cell cycle arrest phase” value (A549 [6]) was “G2/M phase”, the “(%) of cells in G0/G1” value (A549 [6]; A549, 48 h at IC50) was 23.1 ± 0.8% and the “cell cycle arrest phase” value (MCF-7 [7]) was “S phase”. For the same molecule, the “(%) of cells in G0/G1” value (MCF-7 [7]) was 19 ± 1.2%, the “(%) of cells in S” value (MCF-7 [7]) was 63.3 ± 0.6% and the Early apoptosis (A549 [8]) was 16.72%. It also gave an Intact cells (A549 [8]) of 7.39%, a Late apoptosis (A549 [8]) of 70.5% and a Necrosis (A549 [8]) of 5.39%. The “Total death (cellular apoptosis)” value (A549 [8]) was 92.61%, the IC50 (A549 [1]; Homo sapiens, A549, MTT assay) was 9.7 ± 0.7 µM and the IC50 (A549 [1]; MTT assay) was 12.1 ± 1.1 µM. It also gave an IC50 (MCF-7 [2]; Homo sapiens, MCF7, MTT assay) of 9.7 ± 1.3 µM and an IC50 (MCF-7 [2]; MTT assay) of 17.7 ± 1 µM.
Cc1cccc(C[C@@H]2C[C@H]3C(=O)N(C)C4(C[C@H](C)CC[C@H]4C(C)C)N3O2)c1O (stereo partly drawn) [2c, (2S,2′R,3a′S,5R)-2′-(2-hydroxy-3-methylbenzyl)-2-isopropyl-5,5′-dimethyldihydro-2′H-spiro[cyclohexane-1,6′-imidazo [1,5-b]isoxazol]-4′(5′H)-one] was tested, and the IC50 (A549 [1]; Homo sapiens, A549, MTT assay) was 35.4 ± 0.14 µM, the IC50 (SKOV-3; [9]) was 19.4 ± 1.4 µM and the IC50 (MCF-7 [2]; Homo sapiens, MCF7, MTT assay) was 7.2 ± 0.2 µM.
For COc1cccc2c1C(=O)c1c(O)c3c(c(O)c1C2=O)C[C@@](O)(C(=O)CO)C[C@@H]3O[C@H]1C[C@H](N)[C@H](O)[C@H](C)O1 [Doxorubicin, doxorubicin, reference compound], the “(%) of cells in G0/G1” value (SKOV3 [3]) was 16.7 ± 1%, the “(%) of cells in S” value (SKOV3 [3]) was 30.7 ± 0.6% and the Early apoptosis (SKOV3 [4]) was 20.56%. The Intact cells (SKOV3 [4]) was 3.25%, the Late apoptosis (SKOV3 [4]) was 73.08% and the Necrosis (SKOV3 [4]) was 3.11%. For the same molecule, the “Total death (cellular apoptosis)” value (SKOV3 [4]) was 96.75%, the Early apoptosis (MCF-7 [5]) was 17.12% and the Intact cells (MCF-7 [5]) was 7.94%. The Late apoptosis (MCF-7 [5]) was 68.7%, the Necrosis (MCF-7 [5]) was 6.24% and the “Total death (cellular apoptosis)” value (MCF-7 [5]) was 92.06%. For the same molecule, the “(%) of cells in G0/G1” value (A549 [6]; A549, 48 h at IC50) was 16.12 ± 0.54%, the “(%) of cells in S” value (A549 [6]; A549, 48 h at IC50) was 34.01 ± 0.24% and the “(%) of cells in G0/G1” value (MCF-7 [7]) was 18.4 ± 0.9%. For the same molecule, the “(%) of cells in S” value (MCF-7 [7]) was 34 ± 0.6%, the Early apoptosis (A549 [8]) was 9.38% and the Intact cells (A549 [8]) was 1.16%. For the same molecule, the Late apoptosis (A549 [8]) was 88.01%, the Necrosis (A549 [8]) was 1.45% and the “Total death (cellular apoptosis)” value (A549 [8]) was 98.84%. It also gave an IC50 (A549 [1]; Homo sapiens, A549, MTT assay) of 4.2 ± 0.24 µM, an IC50 (SKOV-3; [9]) of 4.2 ± 0.013 µM and an IC50 (MCF-7 [2]; Homo sapiens, MCF7, MTT assay) of 2.8 ± 0.4 µM.
In the case of COC(=O)c1cc(C)cc(C[C@@H]2C[C@H]3C(=O)N(C)[C@@]4(C[C@H](C)CC[C@H]4C(C)C)N3O2)c1O [2g, Methyl 2-hydroxy-3-(((1S,2S,2′R,3a′S,5R)-2-isopropyl-5,5′-dimethyl-4′-oxotetrahydro-2′H-spiro[cyclohexane-1,6′-imidazo[1,5-b]isoxazol]-2′-yl)methyl)-5-methylbenzoate], the IC50 (EGFR tyrosine kinase) is reported as 0.484 ± 0.01 µM, the “cell cycle arrest phase” value (SKOV3 [3]) is reported as “G0/G1 phase” and the “(%) of cells in G0/G1” value (SKOV3 [3]) is reported as 44.5 ± 0.6%. The “(%) of cells in S” value (SKOV3 [3]) was 44.8 ± 1.6%, the “decrease in the G2/M phase vs control, factor” value (SKOV3 [3]) was 2.44 and the Early apoptosis (SKOV3 [4]) was 12.92%. For the same molecule, the Intact cells (SKOV3 [4]) was 3.34%, the Late apoptosis (SKOV3 [4]) was 81.05% and the Necrosis (SKOV3 [4]) was 2.68%. The “Total death (cellular apoptosis)” value (SKOV3 [4]) was 96.65%, the Early apoptosis (MCF-7 [5]) was 46.49% and the Intact cells (MCF-7 [5]) was 24.83%. The Late apoptosis (MCF-7 [5]) was 20.51%, the Necrosis (MCF-7 [5]) was 8.17% and the “Total death (cellular apoptosis)” value (MCF-7 [5]) was 75.17%. The “cell cycle arrest phase” value (A549 [6]) was “G0/G1 phase”, the “(%) of cells in G0/G1” value (A549 [6]; A549, 48 h at IC50) was 49.3 ± 0.7% and the “(%) of cells in S” value (A549 [6]; A549, 48 h at IC50) was 40.2 ± 0.3%. For the same molecule, the “decrease of population in the G2/M phase vs control” value (A549 [6]; A549, 48 h at IC50) was 2.37 folds, the “decrease of population in the S phase vs control” value (A549 [6]; A549, 48 h at IC50) was 1.08 folds and the “cell cycle arrest phase” value (MCF-7 [7]) was “G0/G1 phase”. The “(%) of cells in G0/G1” value (MCF-7 [7]) was 53.7 ± 0.6%, the “(%) of cells in S” value (MCF-7 [7]) was 36.3 ± 0.6% and the Early apoptosis (A549 [8]) was 60.72%. The Intact cells (A549 [8]) was 21.24%, the Late apoptosis (A549 [8]) was 17.69% and the Necrosis (A549 [8]) was 0.35%. The “Total death (cellular apoptosis)” value (A549 [8]) was 78.76%, the IC50 (A549 [1]; Homo sapiens, A549, MTT assay) was 12.1 ± 1.1 µM and the IC50 (A549 [1]; MTT assay) was 9.7 ± 0.7 µM. The IC50 (MCF-7 [2]; Homo sapiens, MCF7, MTT assay) was 17.7 ± 1 µM and the IC50 (MCF-7 [2]; MTT assay) was 9.7 ± 1.3 µM.
